Data reported in ChEMBL document CHEMBL1201862, “PubChem BioAssay data set” (2004).
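1) Cells in 96-well plates. 2) Compound, 48 h, 5 concentrations. 3) Linear interpolation between surrounding doses. 4) Unreached endpoint = highest concentration. Here, GI50 denotes the concentration required for 50% inhibition of growth.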 Active and inactive are the calls of the source. No stated cut-off is given here; in the data, active = GI50 up to about 1.1 µM and inactive = higher.

Legend:
Assay in all cases: NCI anticancer screen, dose series, 48 h
786-0 = tested on: 786-0
A498 = tested on: A498
DMS-114 = tested on: DMS-114
EKVX = tested on: EKVX
HCC 2998 = tested on: HCC 2998
HCT-116 = tested on: HCT-116
HT-29 = tested on: HT-29
K562 = tested on: K562
KM12 = tested on: KM12
M14 = tested on: M14
NCI-H522 = tested on: NCI-H522
OVCAR-8 = tested on: OVCAR-8
SF-295 = tested on: SF-295
SK-MEL-28 = tested on: SK-MEL-28
SK-MEL-2 = tested on: SK-MEL-2
SK-OV-3 = tested on: SK-OV-3
SN12C = tested on: SN12C
SW-620 = tested on: SW-620
MCF7 = tested on: MCF7
PC-3 = tested on: PC-3

SMILES	GI50 (786-0)	GI50 (A498)	GI50 (DMS-114)	GI50 (EKVX)	GI50 (HCC 2998)	GI50 (HCT-116)	GI50 (HT-29)	GI50 (K562)	GI50 (KM12)	GI50 (M14)	GI50 (NCI-H522)	GI50 (OVCAR-8)	GI50 (SF-295)	GI50 (SK-MEL-28)	GI50 (SK-MEL-2)	GI50 (SK-OV-3)	GI50 (SN12C)	GI50 (SW-620)	GI50 (MCF7)	GI50 (PC-3)
NC(=S)N/N=C1\C(=O)N(CCc2ccccc2)C(=O)C1C(=O)NCCc1ccccc1 (stereo not drawn)	> 100 µM (inactive)	> 100 µM (inactive)	74.8 µM (inactive)	> 100 µM (inactive)	> 100 µM (inactive)	> 100 µM (inactive)	> 100 µM (inactive)	> 100 µM (inactive)	> 100 µM (inactive)	> 100 µM (inactive)	> 100 µM (inactive)	> 100 µM (inactive)	> 100 µM (inactive)	> 100 µM (inactive)	> 100 µM (inactive)	> 100 µM (inactive)	> 100 µM (inactive)	> 100 µM (inactive)	–	–
CC[C@@]1(OP(=O)(O)O)C(=O)OCc2c1cc1n(c2=O)Cc2cc3ccccc3nc2-1	0.0607 µM (active)	0.0817 µM (active)	0.0485 µM (active)	1.12 µM (inactive)	0.771 µM (active)	0.157 µM (active)	0.319 µM (active)	0.438 µM (active)	0.398 µM (active)	0.0776 µM (active)	0.286 µM (active)	0.224 µM (active)	0.0301 µM (active)	1.22 µM (inactive)	2.94 µM (inactive)	0.342 µM (active)	0.0883 µM (active)	0.403 µM (active)	0.0358 µM (active)	0.32 µM (active)
O=c1cc(CO)oc2c3c(cc(O)c12)OCC(COC1OC(CO)C(O)C(O)C1O)=CC3 (stereo not drawn)	> 100 µM (inactive)	> 100 µM (inactive)	> 100 µM (inactive)	> 100 µM (inactive)	> 100 µM (inactive)	> 100 µM (inactive)	> 100 µM (inactive)	> 100 µM (inactive)	> 100 µM (inactive)	> 100 µM (inactive)	> 100 µM (inactive)	> 100 µM (inactive)	> 100 µM (inactive)	> 100 µM (inactive)	> 100 µM (inactive)	> 100 µM (inactive)	> 100 µM (inactive)	> 100 µM (inactive)	–	–
CN(CC1NCCCC1O)C12CC3CC(CC(C3)C1)C2 (stereo not drawn)	> 100 µM (inactive)	> 100 µM (inactive)	> 100 µM (inactive)	> 100 µM (inactive)	> 100 µM (inactive)	–	> 100 µM (inactive)	70.8 µM (inactive)	> 100 µM (inactive)	> 100 µM (inactive)	> 100 µM (inactive)	> 100 µM (inactive)	> 100 µM (inactive)	–	–	> 100 µM (inactive)	> 100 µM (inactive)	> 100 µM (inactive)	–	–
CC1=C(C(=O)Nc2ccccc2)C(c2ccc(C(C)C)cc2)C(C(=O)Nc2ccccc2)=C(C)N1	15 µM (inactive)	24 µM (inactive)	7.26 µM (inactive)	25.3 µM (inactive)	7.19 µM (inactive)	12.7 µM (inactive)	15.2 µM (inactive)	12.1 µM (inactive)	22.2 µM (inactive)	18.2 µM (inactive)	15.1 µM (inactive)	22.3 µM (inactive)	37.9 µM (inactive)	22.3 µM (inactive)	13.8 µM (inactive)	22.9 µM (inactive)	13.6 µM (inactive)	17.2 µM (inactive)	–	–
Cc1cc2c(cc1C)[n+]([O-])c(C(=O)/C=C/c1ccc3c(c1)OCO3)c(C)[n+]2[O-]	36.6 µM (inactive)	71.6 µM (inactive)	33.1 µM (inactive)	> 70 µM (inactive)	> 78.5 µM (inactive)	53.8 µM (inactive)	> 100 µM (inactive)	> 100 µM (inactive)	> 100 µM (inactive)	98.9 µM (inactive)	27.6 µM (inactive)	> 100 µM (inactive)	21.1 µM (inactive)	> 100 µM (inactive)	27.9 µM (inactive)	19.8 µM (inactive)	> 78.7 µM (inactive)	> 100 µM (inactive)	> 100 µM (inactive)	> 100 µM (inactive)
CCc1ccccc1NC(=O)CC1NC(=O)CS1 (stereo not drawn)	> 100 µM (inactive)	> 100 µM (inactive)	> 100 µM (inactive)	> 100 µM (inactive)	> 100 µM (inactive)	> 100 µM (inactive)	–	> 100 µM (inactive)	> 100 µM (inactive)	> 100 µM (inactive)	> 100 µM (inactive)	> 100 µM (inactive)	> 100 µM (inactive)	> 100 µM (inactive)	> 100 µM (inactive)	> 100 µM (inactive)	> 100 µM (inactive)	> 100 µM (inactive)	–	–
COc1cc2c(cc1O)C1C(O)C(O)C=C3CCN(C2)C31 (stereo not drawn)	2.39 µM (inactive)	–	1.09 µM (active)	3.84 µM (inactive)	2.4 µM (inactive)	0.158 µM (active)	3.17 µM (inactive)	2.51 µM (inactive)	2.05 µM (inactive)	1.79 µM (inactive)	1.8 µM (inactive)	2.05 µM (inactive)	2.31 µM (inactive)	2.76 µM (inactive)	1.83 µM (inactive)	4.11 µM (inactive)	2.84 µM (inactive)	2.49 µM (inactive)	–	–
